Non-standard residues stand in square brackets, D forms with d. Residues, ends and D or L forms follow the SMILES beside them. *: point of attachment. Bpa = N[C@@H](Cc1ccc(C(=O)c2ccccc2)cc1)C(=O)O; Npys = O=[N+]([O-])c1cccnc1S*; X1 = CC(C)CCOC[C@H](CO)N*
What was measured:
Bos taurus [1] = species on record: Bos taurus; test: Activity against bovine heart cAMP-dependent protein kinase
Bos taurus [2] = species on record: Bos taurus; test: Affinity for bovine heart cAMP-dependent protein kinase
[3] = Inhibition of bovine heart cAMP-dependent protein kinase (PKA); parameters: species or system Bos taurus

Compound	Vmax (Bos taurus [1]) [µM/min/mg]	Km (Bos taurus [2]) [µM]	Ki [3] [µM]	Kd [3] [µM]	Vmax (Bos taurus [2]) [µM/min/mg]
CC(C)CCOC[C@H](CO)NC(=O)[C@H](C)NC(=O)[C@H](CCCN=C(N)N)NC(=O)[C@H](CCCN=C(N)N)NC(=O)[C@@H](N)CC(C)C (H-LRRA-X1)	0.107	108	120	–	–
CC(C)C[C@H](NC(=O)[C@H](CSSc1ncccc1[N+](=O)[O-])NC(=O)[C@H](C)NC(=O)[C@H](CCCN=C(N)N)NC(=O)[C@H](CCCN=C(N)N)NC(=O)[C@@H](N)CC(C)C)C(=O)NCC(=O)O (H-LRRAC(Npys)LG-OH)	–	–	–	40	–
CC(C)C[C@H](NC(=O)[C@H](Cc1ccc(C(=O)c2ccccc2)cc1)NC(=O)[C@H](C)NC(=O)[C@H](CCCN=C(N)N)NC(=O)[C@H](CCCN=C(N)N)NC(=O)[C@@H](N)CC(C)C)C(=O)NCC(=O)O (H-LRRA[Bpa]LG-OH)	–	–	–	110	–
CC(C)C[C@H](NC(=O)[C@H](CO)NC(=O)[C@H](C)NC(=O)[C@H](CCCNC(=N)N)NC(=O)[C@H](CCCNC(=N)N)NC(=O)[C@@H](N)CC(C)C)C(=O)NCC(=O)O [KEMPTIDE]	–	4.6	–	250	0.38
H-LRRAALG-OH	–	–	–	490	–

Source: ChEMBL document CHEMBL1159155, “An ether-based peptide analog as c-AMP-dependent protein kinase inhibitor/substrate” (Bioorg Med Chem Lett, 1994)
